Laboratory results: publication PMC8151276, “An Integrated Approach toward NanoBRET Tracers for Analysis of GPCR Ligand Engagement” (Molecules, 2021)

What was measured:
Type in all cases: binding
ADORA2B = molecular target: T1, ADORA2B (Homo sapiens, UniProt P29275); test: NanoBRET screen HiBiT-ADORA2B in HEK293
T1 construct: purchased Promega (in-house HiBiT-GPCR construct library, NanoBRET)
T1 sequence (P29275 1-332): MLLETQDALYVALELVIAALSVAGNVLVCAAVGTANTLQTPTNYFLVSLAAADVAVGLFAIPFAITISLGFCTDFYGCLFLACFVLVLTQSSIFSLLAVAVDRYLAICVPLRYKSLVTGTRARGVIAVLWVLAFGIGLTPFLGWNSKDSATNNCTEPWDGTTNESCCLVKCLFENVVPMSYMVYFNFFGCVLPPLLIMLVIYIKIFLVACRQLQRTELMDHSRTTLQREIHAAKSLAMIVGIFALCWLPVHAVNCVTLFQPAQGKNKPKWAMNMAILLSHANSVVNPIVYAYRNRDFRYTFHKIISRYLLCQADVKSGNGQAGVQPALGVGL
Description: (§1) Each tracer candidate was screened across the entire library of HiBiT-GPCR constructs using NanoBRET as the detection modality. As depicted in Figure 4A, the specificity of interactions was evaluated through decrease in BRET due to competitive displacement of a bound tracer by excess parental compound. Each tracer was analyzed for binding to each HiBiT-GPCR fusion in the absence and in the presence of competing parental compound. Briefly, HEK293 cells were transfected with HiBiT-GPCR constructs diluted into promoterless DNA to reduce expression and maximize translocation to the cell surface. Each tracer candidate was then screened at concentrations of 1 μM and 0.1 μM across cells expressing these fusions. Cells were treated for 1.5 h with tracer either alone or in the presence of 20 μM competing parental compound (i.e., control). BRET was measured upon addition of purified LgBiT and subsequent complementation with HiBiT genetically fused to a GPCR. The specificity of interactions was assessed through a decrease in BRET signal due to competitive displacement of the bound tracer. To further gauge the robustness of these interactions, the fold response over the control (i.e., BRETtracer/BRETcontrol) was calculated. We chose a 1.5-fold response, which translates to ≥7-fold signal over noise as the minimal threshold required to score an interaction as positive. […]. Below we highlight the screening results obtained for our exemplary fluorescent tracers based on Clozapine, Amitriptyline and AZD1283.
(§2) HiBiT-GPCR DNA constructs were diluted in 10 mM Tris pH 8 to a final concentration of 0.01 μg/μL, arrayed in 96-well plates and stored at −20 °C. For transfection, HEK293 cells were suspended in Opti-MEM (without phenol red) supplemented with 2% fetal bovine serum (Seradigm) and 100 units/mL penicillin–streptomycin (Gibco) at a final concentration of 220,000 cells/mL and dispensed into white 96-well plates at 90 μL/well. Subsequent transfections and screens were carried using an Agilent Bravo Automated Liquid Handling Platform. First, the 96-well HiBiT DNA arrays were diluted 25-fold in Opti-MEM (without serum or phenol red) to a final concentration of 0.0004 μg/μL and 20 μL of the diluted DNAs were transferred into new 96-well plates. Next, promoterless carrier DNA (1 μg/μL) was diluted 25-fold (0.04 μg/μL) and then dispensed into the diluted arrays at 20 μL/well. Following brief mixing, Viafect transfection reagent (Promega) diluted 16-fold into Opti-MEM was dispensed into the plates at 40 μL/well. After mixing by pipetting, plates were incubated for 10 min on the pipetting station deck. The DNA-transfection reagent complexes were then added to plates containing cells. To facilitate the screen, 10 μL of DNA-transfection reagent complexes were added in duplicates to the top 4 and bottom 4 rows, resulting in two identical 48-well arrays per plate. Plates with transfected cells were incubated for 18–20 h at 37 °C/5% CO2. A screen of each tracer across the entire library using two different concentrations requires duplicate plates of transfected cells. Depending on the number of tracers being screened, transfections can be scaled up using the same ratios. The next day, for each tracer, four 20× screening solutions in tracer dilution buffer (Promega) were prepared: two duplicates at final concentration of 20 μM and two duplicates at a final concentration of 2 μM. A competing unmodified compound was added to one of each duplicate at a final concentration of 400 μM. The four resulting solutions were diluted 4-fold in Opti-MEM without serum or phenol red to generate 5× solutions (5 µM and 0.5 µM tracer +/− 100 μM competing compound). To screen the library, a BioTek MultiFlo FX liquid dispenser was used to dispense 22.5 µL of tracer solution to the top 4 rows and 22.5 µL tracer + competing compound solution to the 4 bottom rows. Plates were briefly mixed on an orbital shaker and incubated for 1.5 h at room temperature. […]

GHSR = molecular target: T2, GHSR (Homo sapiens, UniProt Q92847); test: NanoBRET screen HiBiT-GHSR in HEK293
T2 construct: purchased Promega (in-house HiBiT-GPCR construct library, NanoBRET)
T2 sequence (Q92847 whole entry): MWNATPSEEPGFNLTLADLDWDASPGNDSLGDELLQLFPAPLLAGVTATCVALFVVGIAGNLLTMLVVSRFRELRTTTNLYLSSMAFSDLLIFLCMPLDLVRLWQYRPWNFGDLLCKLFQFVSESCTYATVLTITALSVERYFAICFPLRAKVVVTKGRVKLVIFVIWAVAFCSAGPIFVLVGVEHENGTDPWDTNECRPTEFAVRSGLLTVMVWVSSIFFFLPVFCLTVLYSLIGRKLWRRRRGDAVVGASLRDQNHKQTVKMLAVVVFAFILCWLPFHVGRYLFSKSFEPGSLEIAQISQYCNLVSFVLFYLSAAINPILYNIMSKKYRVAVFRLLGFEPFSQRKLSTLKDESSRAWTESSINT
Description: as §1, §2

FZD7 = molecular target: T3, FZD7 (Homo sapiens, UniProt O75084); test: NanoBRET screen HiBiT-FZD7 in HEK293
T3 construct: purchased Promega (in-house HiBiT-GPCR construct library, NanoBRET)
Description: as §1, §2

SMILES | NanoBRET Fold Response (ADORA2B; ADORA2B, tracer 0.1μM) | NanoBRET Fold Response (ADORA2B; ADORA2B, tracer 1μM) | NanoBRET Fold Response (GHSR; GHSR, tracer 0.1μM) | NanoBRET Fold Response (GHSR; GHSR, tracer 1μM) | NanoBRET Fold Response (FZD7; FZD7, tracer 0.1μM) | NanoBRET Fold Response (FZD7; FZD7, tracer 1μM) | other results
O=C(CCc1ccc2n1[B-](F)(F)[N+]1=C(c3ccc[nH]3)C=CC1=C2)NCc1ccc(C(=O)NCCOCCC(=O)N[C@@H]2CC[C@@]3(O)[C@H]4Cc5ccc(O)c6c5[C@@]3(CCN4CC3CC3)[C@H]2O6)cc1 [Naltrexone-3-NB590] | 0.20 | 0.77 | 1.01 | 0.90 | 1.32 | 1.27 | –
N#CN=C(NCCCOc1cccc(CN2CCCCC2)c1)NCCNC(=O)CCOCCOCCOCCOCCNC(=O)CCc1ccc2n1[B-](F)(F)[N+]1=C(c3ccc[nH]3)C=CC1=C2 [Aminopotentidine-2-NB590] | 1.37 | 1.06 | 0.98 | 1.07 | 0.94 | 0.99 | –
COc1ccc2c(n1)c(CCNC(C)=O)cn2CCNC(=O)CCc1ccc2n1[B-](F)(F)[N+]1=C(c3ccc[nH]3)C=CC1=C2 [Azamelatonin-1-NB590] | – | – | – | – | – | – | NanoBRET Fold Response (ADORA2B; 0.1μM tracer): 0.49; NanoBRET Fold Response (ADORA2B; 1μM tracer): 0.60; NanoBRET Fold Response (GHSR; 0.1μM tracer): 0.93; NanoBRET Fold Response (GHSR; 1μM tracer): 1.03; NanoBRET Fold Response (FZD7; 0.1μM tracer): 1.11; NanoBRET Fold Response (FZD7; 1μM tracer): 1.11
CC(C)N(CC[C@H](c1ccccc1)c1cc(CCNC(=O)c2ccc(CNC(=O)CCc3ccc4n3[B-](F)(F)[N+]3=C(c5ccc[nH]5)C=CC3=C4)cc2)ccc1O)C(C)C [Tolterodine-BZ-NB590] | 0.67 | 0.73 | 1.00 | 1.06 | 1.04 | 1.06 | –
CN1CCN(C2=Nc3cc(Cl)ccc3Nc3ccc(CNC(=O)CCOCCOCCOCCOCCNC(=O)CCc4ccc5n4[B-](F)(F)[N+]4=C(c6ccc[nH]6)C=CC4=C5)cc32)CC1 [Clozapine-b-2-NB590] | – | – | – | – | – | – | NanoBRET Fold Response (ADORA2B; ADORA2B, 0.1μM tracer): 1.07; NanoBRET Fold Response (ADORA2B; ADORA2B, 1μM tracer): 0.99; NanoBRET Fold Response (GHSR; GHSR, 0.1μM tracer): 1.01; NanoBRET Fold Response (GHSR; GHSR, 1μM tracer): 1.03; NanoBRET Fold Response (FZD7; FZD7, 0.1μM tracer): 1.01; NanoBRET Fold Response (FZD7; FZD7, 1μM tracer): 0.98
